According to ChEMBL document CHEMBL1143054, “Antimalarial linear lipopeptides from a Panamanian strain of the marine cyanobacterium Lyngbya majuscula” (J Nat Prod, 2007):
Non-standard residues stand in square brackets, D forms with d. Residues, ends and D or L forms follow the SMILES beside them. *: point of attachment. NMeY = CN[C@@H](Cc1ccc(O)cc1)C(=O)O; NMeF = CN[C@@H](Cc1ccccc1)C(=O)O; NMeV = CN[C@H](C(=O)O)C(C)C; X1 = C#CCCCCC(C)CC(C)C(=O)*; X2 = C#CCCCC[C@H](C)C(=O)*; NMeA = CN[C@@H](C)C(=O)O

Assays:
Vero = test: Cytotoxicity against Vero cells after 4 hrs; format: cell-based; details: Chlorocebus sabaeus
Plasmodium falciparum = test: Antimalarial activity against chloroquine-resistant Plasmodium falciparum W2 by fluorimetry; format: functional, organism-based

Structure (SMILES)	IC50 (Vero)	IC50 (Plasmodium falciparum)
C#CCCCCC(C)CC(C)C(=O)N(C)[C@@H](Cc1ccccc1)C(=O)N[C@@H](C)C(=O)N(C)[C@@H](C)C(=O)N(C)[C@@H](Cc1ccc(OC)cc1)C(N)=O (stereo partly specified) [CARMABIN A] (X1-[NMeF]A[NMeA][NMeY](Me)-NH2)	9.8 µM	1.4 µM
C#CCCCC[C@H](C)C(=O)N(C)[C@@H](Cc1ccccc1)C(=O)N[C@@H](C)C(=O)N(C)[C@@H](C)C(=O)N(C)[C@@H](Cc1ccc(OC)cc1)C(N)=O [DRAGOMABIN] (X2-[NMeF]A[NMeA][NMeY](Me)-NH2)	182 µM	21 µM
C#CCCCC[C@H](C)C(=O)N(C)[C@H](C(=O)N(C)[C@H](C(=O)N(C)[C@H](C(=O)N(C)[C@@H](Cc1ccccc1)C(N)=O)C(C)C)C(C)C)C(C)C [DRAGONAMIDE A] (X2-[NMeV][NMeV][NMeV][NMeF]-NH2)	67.8 µM	10.7 µM
